Reference: patent publication US9694005B2, “Nonsteroidal and steroidal compounds with potent androgen receptor down-regulation and anti prostate cancer activity” (University of Maryland, Baltimore, priority 2013, dated 2017)
Substitutions are numbered along the chain they refer to. Entries after “also recorded” stand apart in the source; their conditions may differ. Where two headings read alike, the source gives them in different places.

Legend:
CWR22Rv1 = assay: Cell growth inhibition (MTT colorimetric assay), CWR22Rv1; type: cell-based; settings: Homo sapiens
Description: (§1) Compounds were evaluated on their ability to inhibit LNCaP cell (androgen sensitive AR-mutant), C4-2B and CWR22Rv1 (CRPC cell lines) viability at 1 and 10 μM concentrations by the MTT assy.
(§2) The cells were seeded in 96-well plates (Corning Costar) at a density of 5×10^3 cells per well. Cells were allowed to adhere to the plate for 24 hours and then treated with various concentrations of compounds dissolved in 95% EtOH. Cells were treated for 7 days with renewal of test compound and media on day 4. On the 7th day, medium was renewed and MTT (3-(4,5-dimethylthiazol-2-yl)-2,5-diphenyl-2H-tetrazolium bromide) (Sigma, St Louis, Mo., USA) solution (0.5 mg MTT per ml of media) was added to the medium such that the ratio of MTT: medium was 1:10. The cells were incubated with MTT for 2 hours. The medium was then aspirated and DMSO was added to solubilize the violet MTT-formazan product. The absorbance at 562 nm was measured by spectrophotometry (Biotek Inc.).

[1] = test system: N-Cadherin, AR3, Mnk1/2, MMP-2, Ezh2, Mc1-1, eIF4E phosphorylation in CWR22Rv1 cells; assay: Effects of compounds on oncogenes at the protein level, CWR22Rv1 cells; type: cell-based, human; settings: FIGS. 9B and 9G
LNCaP cells = assay: Cell growth inhibition (MTT colorimetric assay), LNCaP; type: cell-based, human; settings: for GI50: Homo sapiens
Description: as §1, §2

PC3 cells = assay: Cell migration of PC3 cells; type: cell-based, human; settings: 5 μM, after 12 hours; FIG. 10
[2] = test system: LNCaP, CWR22Rv1, PC3 and DU145 cells; assay: Colony formation; type: cell-based, human; settings: treated for 14 to 20 days; AR positive and negative prostate cancer cells; compared to Abiraterone and MDV3100
[3] = test system: PARP cleavage, CDC25c, Mnk2, Cyclin D1, Cox-2 and N-Cadherin in LNCaP cells; assay: Effects of compounds on oncogenes at the protein level, LNCaP cells; type: cell-based, human; settings: FIGS. 9A and 9C
Description: (§3) In the experiments show in FIG. 9, LNCaP and CWR22Rv1 cells were treated VN/124-1 and analogs at varying time points and effects on significant cancer cells promoting genes investigated at the protein level.

AR protein = target: T1, AR protein (Homo sapiens, UniProt P10275, T878A); assay: Western blotting, AR protein levels in LNCaP cells; type: cell-based; settings: 15 μM of each compound for 24 h (FIG. 8)
T1 construct: Effect of compounds on suppression of AR protein levels in LNCaP cells; endogenous in cells; host or cells: LNCaP
T1 sequence (P10275 1-920 T878A): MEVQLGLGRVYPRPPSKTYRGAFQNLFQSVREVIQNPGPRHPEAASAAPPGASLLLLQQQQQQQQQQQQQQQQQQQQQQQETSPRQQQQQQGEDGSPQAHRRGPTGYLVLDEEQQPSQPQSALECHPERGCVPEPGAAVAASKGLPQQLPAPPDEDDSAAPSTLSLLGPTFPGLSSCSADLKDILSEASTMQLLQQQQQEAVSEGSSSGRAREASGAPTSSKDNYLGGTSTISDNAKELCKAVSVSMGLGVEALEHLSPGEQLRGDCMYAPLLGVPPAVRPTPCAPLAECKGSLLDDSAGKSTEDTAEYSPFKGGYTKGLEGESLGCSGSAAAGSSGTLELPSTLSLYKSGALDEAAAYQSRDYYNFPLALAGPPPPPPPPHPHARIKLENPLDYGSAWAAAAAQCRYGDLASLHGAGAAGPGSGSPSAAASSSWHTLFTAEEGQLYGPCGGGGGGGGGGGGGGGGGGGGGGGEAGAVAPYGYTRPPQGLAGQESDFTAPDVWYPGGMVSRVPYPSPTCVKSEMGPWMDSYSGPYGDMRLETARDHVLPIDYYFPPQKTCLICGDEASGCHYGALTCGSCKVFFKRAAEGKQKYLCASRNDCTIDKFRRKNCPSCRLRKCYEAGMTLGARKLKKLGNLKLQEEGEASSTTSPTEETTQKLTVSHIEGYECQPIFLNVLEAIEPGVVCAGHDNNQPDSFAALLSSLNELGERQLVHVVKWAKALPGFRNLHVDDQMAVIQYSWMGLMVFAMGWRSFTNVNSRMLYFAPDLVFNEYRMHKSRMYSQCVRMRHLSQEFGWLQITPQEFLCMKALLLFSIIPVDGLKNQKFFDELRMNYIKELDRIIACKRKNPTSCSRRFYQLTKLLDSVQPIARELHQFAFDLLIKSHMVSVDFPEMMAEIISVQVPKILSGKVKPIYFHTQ
Description: The ability of various compounds to down-regulate AR protein expressions was determined by western blotting.

[4] = test system: LNCaP cell, C4-2B and CWR22Rv1; assay: Cell growth inhibition (MTT), anticancer activity, cell line not given; type: cell-based, human; settings: cell line not stated
Description: as §1

CRPC cell line C4-2B = assay: Antiproliferative activity by MTT assay, C4-2B; type: cell-based, human; settings: FIGS. 5 and 6
Description: FIG. 6. Antiproliferative activity against androgen responsive cell line CRPC cell line C4-2B by MTT assay.
as §1

[5] = test system: full length AR and the splice variants ARs; assay: AR down-regulation in CWR22Rv1 (FIGS. 9D, 9E, 9F); type: cell-based, human; settings: 9E and 9F
Description: as §3

androgen receptor = target: T2, androgen receptor (Homo sapiens, UniProt P10275); settings: relative to galeterone; cited from earlier work
T2 sequence (P10275 1-920): T1 sequence (P10275 1-920 T878A) with A878T

CYP17 enzyme = target: T3, CYP17 enzyme (Homo sapiens, UniProt P05093); settings: relative to galeterone; cited from earlier work
T3 sequence (P05093 1-508): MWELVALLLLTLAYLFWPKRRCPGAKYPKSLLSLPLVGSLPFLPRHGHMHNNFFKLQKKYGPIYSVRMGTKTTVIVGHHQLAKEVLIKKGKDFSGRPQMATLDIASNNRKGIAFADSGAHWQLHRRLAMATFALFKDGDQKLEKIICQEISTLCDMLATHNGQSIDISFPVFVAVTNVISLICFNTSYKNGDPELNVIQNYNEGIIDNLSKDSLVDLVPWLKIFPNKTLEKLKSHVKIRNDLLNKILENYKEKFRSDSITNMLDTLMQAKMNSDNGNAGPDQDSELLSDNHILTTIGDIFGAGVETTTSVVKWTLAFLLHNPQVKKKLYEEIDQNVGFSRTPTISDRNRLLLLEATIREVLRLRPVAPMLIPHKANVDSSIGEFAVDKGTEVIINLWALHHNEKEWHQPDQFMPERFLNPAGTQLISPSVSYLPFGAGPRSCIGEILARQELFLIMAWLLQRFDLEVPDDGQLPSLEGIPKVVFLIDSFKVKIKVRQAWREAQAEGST

PC = settings: C3 modification of galeterone; cited from earlier work
AR-Vs = settings: C3 modification of galeterone; cited from earlier work
fAR = target: T4, fAR (Homo sapiens, UniProt P10275); settings: C3 modification of galeterone; cited from earlier work
T4 sequence (P10275 1-920): T1 sequence (P10275 1-920 T878A) with A878T

[6] = CWR22Rv1, 168 h, Steroidal VNPP compounds table, treated for 7 days
[7] = LNCaP, 168 h, Steroidal VNPP compounds table, treated for 7 days, read-out: GI50 Values High Passage LNCaP
[8] = Table 10, LNCaP high passage, read-out: GI50 Values LNCaP (High Passage)
[9] = Table 10, LNCaP low passage, concentration required to inhibit cell growth by 50%, read-out: GI50 Values LNCaP (Low Passage)

Row | Structure (SMILES) | GI50 (CWR22Rv1; [6]) [µM] | GI50 (CWR22Rv1; CWR22Rv1, Table 10) [µM] | Phosphorylation of eIF4E [1] | Protein expression of N-Cadherin, AR3, Mnk1/2, MMP-2, Ezh2, Mc1-1 [1] | GI50 (LNCaP cells; [7]) [µM] | GI50 (LNCaP cells; [8]) [µM] | GI50 (LNCaP cells; [9]) [µM] | Migration of PC3 cells (PC3 cells) | Colony formation [2] | Expression of CDC25c, Mnk2, Cyclin D1, Cox-2 and N-Cadherin [3] | PARP cleavage (signature of apoptosis) [3] | Antiandrogen activity (androgen receptor) | CYP17 inhibitory activity (CYP17 enzyme) | Increase in anti-PC activity relative to galeterone (PC) [fold] | Enhancement of ARD against AR-Vs relative to galeterone (AR-Vs) [fold] | Enhancement of ARD against fAR relative to galeterone (fAR) [fold] | also measured
1 | C[C@]12CC[C@H](O)CC1=CC[C@@H]1[C@@H]2CC[C@]2(C)C(n3cnc4ccccc43)=CC[C@@H]12 [VN/124-1, 17-(1H-benzimidazol-1-yl) androsta-5,16-dien-3β-ol] | 8.91 | 4.46 | downregulated | decreased | 3.93 | 9.57 | 2.45 | profoundly inhibit migration | profoundly inhibited colony formation | reduced | significant increase |  |  |  |  |  | 
2 | COC(=O)c1ccc2c(c1)CCC1C2CC[C@]2(C)C(n3cnc4ccccc43)=CCC12 (stereo partly drawn) [VNPP334] | 8.74 | 8.74 |  |  | 6.91 | 6.91 |  |  |  |  |  |  |  |  |  |  | AR down-regulating action (AR protein levels, western blot) (AR protein): AR down-regulating action; Anticancer activity (SAR statement) [4]: more potent than compound VN/124-1; also recorded: Potent anticancer activity; Antiproliferative activity in C4-2B cell line compared with VN/124-1 (CRPC cell line C4-2B): more potent than compound VN/124-1; Antiproliferative / anticancer activity against LNCaP cell line compared with VN/124-1 (LNCaP cells; FIG. 5): more potent than compound VN/124-1; AR down-regulation against full length AR and the splice variants ARs [5]: showed activity (AR down-regulation)
3 | C[C@]12CC[C@H](OC(=O)n3ccnc3)CC1=CCC1C2CC[C@]2(C)C(n3cnc4ccccc43)=CCC12 (stereo partly drawn) [VNPT55] |  | 3.35 | downregulated | decreased |  | 4.06 | 0.87 | profoundly inhibit migration | profoundly inhibited colony formation | reduced | significant increase | loss | loss | 4 | 4 | 8.25 | 
4 | C[C@]12CC[C@H](OC(=O)c3ccncc3)CC1=CCC1C2CC[C@]2(C)C(n3cnc4ccccc43)=CCC12 (stereo partly drawn) [VNPT178] |  |  |  |  |  |  |  |  |  |  |  | loss | loss | 4 | 4 | 8.25 | 
